Data from PMC11500415, “Chemical inhibition of stomatal differentiation by perturbation of the master-regulatory bHLH heterodimer via an ACT-Like domain” (Nature Communications, 2024).
Where two headings read alike, the source gives them in different places.

Molecular target: T1, SCRM (Arabidopsis thaliana, UniProt Q9LSE2)
T1 construct: SCRM (1-494); made in house; host or cells: E. coli BL21
T1 sequence (Q9LSE2 1-494): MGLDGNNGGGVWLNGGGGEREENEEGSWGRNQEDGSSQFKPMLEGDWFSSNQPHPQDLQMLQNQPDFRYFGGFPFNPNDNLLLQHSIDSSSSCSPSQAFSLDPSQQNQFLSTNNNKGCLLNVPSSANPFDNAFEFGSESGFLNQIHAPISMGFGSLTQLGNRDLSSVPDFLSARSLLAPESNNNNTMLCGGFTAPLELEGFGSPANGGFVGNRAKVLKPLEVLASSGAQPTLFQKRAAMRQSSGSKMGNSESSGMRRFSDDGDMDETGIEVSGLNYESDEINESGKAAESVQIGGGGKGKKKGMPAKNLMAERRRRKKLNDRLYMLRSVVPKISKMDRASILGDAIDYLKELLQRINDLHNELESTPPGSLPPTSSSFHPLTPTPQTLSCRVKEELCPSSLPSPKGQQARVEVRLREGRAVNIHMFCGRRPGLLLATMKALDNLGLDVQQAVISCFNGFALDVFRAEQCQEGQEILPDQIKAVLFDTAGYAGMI
Experiment: BLI direct binding
Parameters: species or system A. thaliana

O=C1C(c2ccccc2)=NC(NS(=O)(=O)c2ccccc2)(c2ccccc2)N1S(=O)(=O)c1ccccc1 (centres unmarked) [Stomidazolone]
Kd (BLI steady state, read-out: KD (SS)): 68.5 ± 5.6 µM | Kd (BLI, read-out: KD): 65.5 ± 0.6 µM
